{"source": "patent US20190343817A1", "about": "“METHOD OF TREATING PAIN” (VERTEX PHARMACEUTICALS INCORPORATED, priority 2018, published 2019)", "key": {"[1]": {"tested_on": "patients with chronic pain caused by small fiber neuropathy", "assay": "Efficacy of Compound 1 for pain caused by small fiber neuropathy (randomized, double-blind, placebo-controlled, 6-week study)", "assay_type": "in vivo, human", "protocol": "A randomized, double-blind, placebo-controlled, 6-week study that evaluated treatment with Compound 1 (Treatment Arm) or placebo (Placebo Arm) in patients with chronic pain caused by small fiber neuropathy was conducted.\nMales and females between the ages of 18 and 80 years, inclusive, with small fiber neuropathy.\nCompound 1 was administered orally in 250 mg capsules, prepared as described in Example 2.\nThe study included a 7-day run-in period, followed a 6-week treatment period. The subjects were randomized to a Placebo Arm (43 subjects) and a Treatment Arm (46 subjects) between the run-in period and the treatment period.\nDuring the run-in period, subjects reported their average pain and sleep interference to establish a baseline NRS pain score and DSIS score.\nDuring the treatment period, Compound 1 was administered to the subjects in the Treatment Arm every 24 hours (q24 h) in a dose of 1250 mg. Subjects in the Placebo Arm received placebo capsules.\nPain intensity was evaluated using an 11-point NRS. The 11-point scale ranged from 0 (no pain) to 10 (worst imaginable pain). From Day −7 through Week 6, subjects reported their average daily pain during the last 24 hours on the NRS via electronic diary.\nSubjects reported pain interference with sleep using an 11-point scale ranging from 0 (none) to 10 (severe). The DSIS score was reported each morning in an electronic diary.\nSubjects' impressions of their overall health status were reported on a 7-point scale from 1 (very much improved) to 7 (very much worse) at study visits.\nNRS pain scores were averaged over weekly periods to reduce the impact on the analyses of individual high or low pain scores. The mean change from baseline in the weekly average of daily pain intensity on the 11-point NRS over the course of the treatment period for subjects in the Placebo and Treatment Arms is depicted graphically in FIG. 3. The mean change from baseline for those treated with Compound 1 compared to placebo was −1.09 (95% CI: −1.88 to −0.29) at Week 6.\nThe number and percentage of subjects with ≥30% and ≥50% reduction in the weekly average of daily pain intensity on the 11-point NRS at Week 6 is reported in Table 9. The total number of subjects for determining the percentage was based on subjects who had data at Week 6.\nThe total number of subjects for determining the percentage was based on subjects who had data at Week 6."}, "[2]": {"tested_on": "subjects with pain following bunionectomy", "assay": "Efficacy of Compound 1 in subjects with pain following bunionectomy (randomized, double-blind, placebo-controlled, 3-arm study)", "assay_type": "in vivo, human", "protocol": "A randomized, double-blind, placebo-controlled, 3-arm, parallel-design study to evaluate the effect of Compound 1 on acute surgical pain was conducted. Bunionectomy is a well-established, multi-dose, surgical, acute pain model. A randomized, double-blind study design was selected to avoid observer bias and reduce symptoms or outcomes arising from the subjects' knowledge of treatment. A parallel design was considered most appropriate given the acute nature of bunionectomy surgery.\nMale and female patients between the ages of 18 and 65 years (inclusive) with pain that is ≥4 on an 11-point Numeric Pain Rating Scale (NPRS) and is moderate or severe on the Verbal Categorical Rating Scale (VRS) after bunionectomy.\nInvestigational Drug: Compound 1. The investigational drug was administered orally in 250 mg capsules, prepared as described in Example 2. The investigational drug was administered every 12 hours (q12 h). The first dose was 1500 mg, and the remaining doses were 750 mg.\nThe reference drug was administered orally in 5 mg/325 mg capsules, supplied as over-encapsulated 5 mg/325 mg tablets. The reference drug was administered in a dose of 5 mg/325 mg every 6 hours (q6 h).\nAfter a screening period, subjects received a primary unilateral first metatarsal bunionectomy repair on Day −1. A continuous popliteal sciatic block infusion (0.2% ropivacaine) was started after surgery, and remained in place until approximately 3 AM on Day 1. After removal of the popliteal sciatic block, each subject was randomized when the subject requested the first dose of study drug for pain relief and reported pain ≥4 on the NPRS and moderate or severe pain on the VRS.\nA total of 243 subjects were randomized approximately 1:1:1 to the Investigational Arm (80 subjects), Reference Arm (81 subjects), and Placebo Arm (82 subjects). To maintain the blind, all subjects received the same number of capsules in a double-dummy design.\nIn the Investigational Arm, Compound 1 was administered every 12 hours (q12 h) in a first dose of 1500 mg, followed by three 750 mg doses. The final dose of Compound 1 was given 36 hours after the first dose.\nCompound 1 placebo capsules were administered every 12 hours (q12 h).\nNPRS scores are frequently used in bunionectomy studies and are recognized by the FDA as a valid pain intensity measure. On the 11-point NPRS, a score of 0 denoted no pain, and a score of 10 denoted the worst pain intensity imaginable. Subjects reported their pain on the 11-point NPRS immediately before their first dose of the study drug (baseline NPRS score) and 0.5, 1, 1.5, 2, 3, 4, 5, 6, 8, 12, 16, 20, 24, 28, 32, 36, 40, 44, and 48 hours (±5 minutes) after the first dose of study drug. Pain intensity also was recorded on the NPRS immediately before each administration of rescue medication. Pain intensity scores that were collected within 4 hours after a dose of rescue medication were taken as missing, and the missing values were imputed as the intensity recorded immediately before the administration of rescue medication.\nThe primary efficacy analysis was based on an analysis of covariance (ANCOVA) model. The Least Squares (LS) mean of the time-weighted sum of the NPRS pain intensity difference, relative to baseline, from 0 to 24 hours after the first dose (“SPID24”) for each study arm is reported in Table 3. SPID24 is a standard measure of acute pain. Higher SPID24 scores represent improvements in pain relief. “Treatment difference” refers to the difference in SPID24 between the Investigational and Reference Arms, respectively, and the Placebo Arm.\nThe LS mean of the time-weighted sum of the NPRS pain intensity difference, relative to baseline, from 2 to 24 hours after the first dose (“SPID22”) for each study arm is reported in Table 4. The analysis was based on an analysis of covariance (ANCOVA) model. “Treatment difference” refers to the difference in SPID22 between the Investigational and Reference Arms, respectively, and the Placebo Arm."}, "[3]": {"tested_on": "subjects with pain following bunionectomy", "assay": "Safety evaluations in the bunionectomy study (adverse events)", "source_text": "Safety evaluations included adverse events, clinical laboratory assessments, clinical evaluation of vital signs, electrocardiograms, and physical examinations."}, "[4]": {"conditions": "Week 6, 1250 mg q24 h, n/Total of subjects with data at Week 6 given"}, "[5]": {"conditions": "oral, Compound 1 1500 mg first dose then 750 mg q12 h, HB/APAP 5 mg/325 mg q6 h, ANCOVA"}, "[6]": {"conditions": "relative to baseline, 24 hours after first dose, Investigational Arm 80 subjects, Reference Arm 81 subjects"}}}
{"compound": "Cc1cc(F)ccc1Oc1cc(C(F)(F)F)ccc1C(=O)Nc1ccn(COP(=O)(O)O)c(=O)c1", "note": "[Compound 1, (4-(2-(4-fluoro-2-methylphenoxy)-4-(trifluoromethyl)benzamido)-2-oxopyridin-1(2H)-yl)methyl dihydrogen phosphate]", "values": [{"measurement": "Mean change from baseline NRS at week 6 (SE), weekly average of daily pain intensity on 11-point NRS", "setting": "[1]; 1250 mg q24 h oral, 6 weeks, baseline 6.43, within-group", "value": "−2.02 (0.27)"}, {"measurement": "Subjects categorized as improved on the PGIC assessment", "setting": "[1]; [4]", "value": "39.5% (17/43)"}, {"measurement": "Subjects with ≥30% reduction in weekly average of daily pain intensity on 11-point NRS", "setting": "[1]; [4]", "value": "45.0% (18/40)"}, {"measurement": "Subjects with ≥50% reduction in weekly average of daily pain intensity on 11-point NRS", "setting": "[1]; [4]", "value": "32.5% (13/40)"}, {"measurement": "Mean change from baseline in weekly average of daily pain intensity (NRS), Compound 1 compared to placebo", "setting": "[1]; Week 6, 1250 mg q24 h oral", "value": "−1.09 (95% CI: −1.88 to −0.29)"}, {"measurement": "Mean change from baseline (SE) in weekly average of Daily Sleep Interference Scale (DSIS) score", "setting": "[1]; Week 6, 1250 mg q24 h oral, baseline 5.94", "value": "−1.78 (0.28)"}, {"measurement": "Treatment difference versus placebo in NRS pain intensity", "setting": "[1]; as early as Week 1, 1250 mg q24 h oral", "value": "greater than 1 point"}, {"measurement": "Treatment difference in SPID24 versus Placebo Arm", "setting": "[2]; 0 to 24 hours after first dose, same dosing as SPID24", "value": 29.50}, {"measurement": "Treatment difference in SPID48 versus Placebo Arm", "setting": "[2]; 0 to 48 hours after first dose", "value": 62.79}, {"measurement": "Treatment difference in SPID22 versus Placebo Arm", "setting": "[2]; 2 to 24 hours after first dose", "value": 28.53}, {"measurement": "Relief of acute pain compared to placebo (SPID24)", "setting": "[2]; Investigational Arm, 1500 mg then 750 mg q12 h", "value": "statistically significant relief of acute pain compared to placebo"}, {"measurement": "Subjects who discontinued due to lack of efficacy", "setting": "[2]; bunionectomy study, of subjects assigned to the arm", "value": 7.5, "unit": "%"}, {"measurement": "SPID22 (SE): LS mean of time-weighted sum of NPRS pain intensity difference, relative to baseline, 2 to 24 hours after first dose", "setting": "[2]; [5]", "value": "34.95 (4.93)"}, {"measurement": "SPID48 (SE): LS mean of time-weighted sum of NPRS pain intensity difference, relative to baseline, 0 to 48 hours after first dose", "setting": "[2]; [5]", "value": "112.22 (10.57)"}, {"measurement": "SPID24 (SE): LS mean of time-weighted sum of NPRS pain intensity difference, relative to baseline, 0 to 24 hours after first dose", "setting": "[2]; oral, Compound 1 1500 mg first dose then 750 mg q12 h, HB/APAP 5 mg/325 mg q6 h, ANCOVA, higher = better pain relief", "value": "36.14 (5.15)"}, {"measurement": "Subjects achieving ≥30% NPRS reduction at 24 hours", "setting": "[2]; [6]", "value": "46 (57.5) n (%)"}, {"measurement": "Subjects achieving ≥50% NPRS reduction at 24 hours", "setting": "[2]; [6]", "value": "41 (51.3) n (%)"}, {"measurement": "Subjects achieving ≥70% NPRS reduction at 24 hours", "setting": "[2]; [6]", "value": "22 (27.5) n (%)"}, {"measurement": "Tolerability", "setting": "[3]; 1500 mg then 750 mg q12 h, oral", "value": "generally well tolerated"}, {"measurement": "Gastrointestinal adverse events", "setting": "[3]; percentage of arm", "value": 13, "unit": "%"}]}
